These results are taken from ChEMBL document CHEMBL5055659, “Photosensitive and Photoswitchable TRPA1 Agonists Optically Control Pain through Channel Desensitization” (J Med Chem, 2021).

The nature of data set [1]: Drug metabolism in bath solution assessed as photochemical switch by measuring trans-isoform reversal at 50 uM measured after exposure to 415 nm UV irradiation by HPLC analysis. The data set is classed as physicochemical.
In data set [2] the target is T1, Transient receptor potential cation channel subfamily A member 1 (Homo sapiens, UniProt O75762). Nature of the data set: Inhibition of fluorescent probe A1CA binding to TRPA1 (unknown origin) expressed in CHO cells assessed as decrease in fluorescent intensity at 10 uM incubated for 2 mins by confocal fluorescence microscopy. Format: cell-based.
The species entered for data set [3] is Mus musculus. Nature of the data set: Antinociceptive activity against capsaicin-induced wild type C57BL/6J mouse left check pain model assessed as reduction in frequency of wiping within 10 mins at 1 mM smeared on left check followed by exposed to 365 nm UV light. The data set is classed as functional, organism-based.
Data set [4] can be described thus: Drug metabolism in cyclohexane assessed as thermal isomerization by measuring half life at 50 uM at 25 degC by UV-vis spectroscopy. The data set is classed as physicochemical.
The nature of data set [5]: Photostability of the compound in bath solution by measuring reversible photo-isomerism measured after exposure to 365 to 530 nm UV irradiation by UV spectra. Format: physicochemical.
Data set [6] addresses T1, Transient receptor potential cation channel subfamily A member 1. Nature of the data set: Agonist activity at human TRPA1 expressed in HEK293 cells assessed as induction of Ca2+ influx at 10 uM measured under 365 nm UV irradiation by Fluo-8 based calcium imaging assay. Particulars: filed as agonist. Format: cell-based.
The target is the same in data set [7]. Nature of the data set: Agonist activity at human TRPA1 expressed in HEK293 cells assessed as induction of Ca2+ influx at 10 uM measured under dark by Fluo-8 based calcium imaging assay. Format: cell-based.
Data set [8] shares this target. Nature of the data set: Agonist activity at TRPA1 expressed in CHO cells assessed as activation of channel current in presence of 330 - 380 nm UV irradiation by whole-cell patch clamp electrophysiology. Format: cell-based. On the technique in general: In patch-clamp work, channel activity is measured electrically.
The test system of the next data set is HEK293. Nature of the data set: Induction of Ca2+ influx in TRPA1 untransfected HEK293 cells at 10 uM measured under 365 nm UV irradiation by Fluo-8 based calcium imaging assay. The data set is classed as functional, cell-based. The conditions noted are these: Homo sapiens.
The target in data set [9] is T1, Transient receptor potential cation channel subfamily A member 1. Nature of the data set: Agonist activity at TRPA1 expressed in CHO cells assessed as reversal of activated channel current in presence of 410 - 420 nm UV irradiation at 100 uM by whole-cell patch clamp electrophysiology. The data set is classed as cell-based.
Data set [10] is described as follows: Drug metabolism in bath solution assessed as photochemical switch by measuring cis-isoform at 50 uM measured after exposure to 365 nm UV irradiation by HPLC analysis. Format: physicochemical.
A short description of data set [11]: Drug metabolism in cell external solution assessed as thermal isomerization by measuring half life at 50 uM at 25 degC by UV-vis spectroscopy. Format: ADME.
Data set [12] concerns the target Transient receptor potential cation channel subfamily A member 1 (Mus musculus) (UniProt Q8BLA8). Nature of the data set: In vivo induction of TRPA1 channel desensitization in capsaicin-induced wild type C57BL/6J mouse left check pain model assessed as macroscopic current desensitization at 300 uM treated 11 consecutive repeat measured after exposed to 365 nm UV light. The data set is classed as functional, organism-based.

The target in data set [13] is Sodium channel protein type 5 subunit alpha (Homo sapiens, UniProt Q14524). Nature of the data set: Effect on Nav1.5 (unknown origin) transfected in CHO cells assessed as activation of channel current in presence of 365 nm UV irradiation by whole-cell patch clamp electrophysiology. The data set is classed as cell-based.
The species named for data set [14] is Mus musculus. Nature of the data set: Antinociceptive activity against capsaicin-induced […] knock-out C57BL/6J mouse left check pain model assessed as reduction in frequency of wiping within 10 mins at 1 mM smeared on left check followed by exposed to 365 nm UV light. Format: functional, organism-based.
For data set [15], the species on record is Mus musculus. Nature of the data set: Antinociceptive activity against capsaicin-induced wild type C57BL/6J mouse left check pain model assessed as reduction in frequency of wiping within 10 mins at 1 mM smeared on left check. Format: functional, organism-based.
Data set [16] has as its target Transient receptor potential cation channel subfamily V member 4 (Homo sapiens) (UniProt Q9HBA0). Nature of the data set: Effect on TRPV4 (unknown origin) transfected in CHO cells assessed as activation of channel current in presence of 365 nm UV irradiation by whole-cell patch clamp electrophysiology. Format: cell-based.
Data set [17] addresses Sodium channel protein type 4 subunit alpha (Homo sapiens) (UniProt P35499). Nature of the data set: Effect on Nav1.4 (unknown origin) transfected in CHO cells assessed as activation of channel current in presence of 365 nm UV irradiation by whole-cell patch clamp electrophysiology. Format: cell-based.
Data set [18] concerns the target T2, Transient receptor potential cation channel subfamily V member 3 (Homo sapiens) (UniProt Q8NET8).
T2 sequence (whole entry): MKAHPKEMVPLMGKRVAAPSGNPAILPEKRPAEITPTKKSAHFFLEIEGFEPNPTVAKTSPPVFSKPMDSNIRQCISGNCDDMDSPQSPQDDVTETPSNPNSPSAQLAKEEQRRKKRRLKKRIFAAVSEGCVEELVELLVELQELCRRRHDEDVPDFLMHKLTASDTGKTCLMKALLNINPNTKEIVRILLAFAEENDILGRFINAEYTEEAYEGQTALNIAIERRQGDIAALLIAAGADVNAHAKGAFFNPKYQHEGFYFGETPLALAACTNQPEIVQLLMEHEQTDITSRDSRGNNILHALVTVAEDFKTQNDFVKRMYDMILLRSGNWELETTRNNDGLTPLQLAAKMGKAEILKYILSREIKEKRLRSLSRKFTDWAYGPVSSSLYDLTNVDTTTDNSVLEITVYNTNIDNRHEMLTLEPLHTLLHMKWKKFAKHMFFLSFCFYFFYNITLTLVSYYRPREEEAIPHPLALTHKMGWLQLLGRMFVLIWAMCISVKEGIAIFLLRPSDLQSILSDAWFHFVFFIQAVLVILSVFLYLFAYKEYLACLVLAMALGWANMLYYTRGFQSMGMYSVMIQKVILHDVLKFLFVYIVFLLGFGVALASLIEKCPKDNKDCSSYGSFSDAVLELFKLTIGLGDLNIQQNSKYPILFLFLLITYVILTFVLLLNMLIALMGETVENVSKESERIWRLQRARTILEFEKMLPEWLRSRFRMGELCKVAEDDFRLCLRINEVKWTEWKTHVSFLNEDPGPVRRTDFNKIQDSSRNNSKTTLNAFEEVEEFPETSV
Nature of the data set: Effect on TRPV3 (unknown origin) transfected in CHO cells assessed as activation of channel current in presence of 365 nm UV irradiation by whole-cell patch clamp electrophysiology. Format: cell-based.

The target of data set [19] is T1, Transient receptor potential cation channel subfamily A member 1. Nature of the data set: Agonist activity at human TRPA1 expressed in HEK293 cells assessed as induction of Ca2+ influx at 300 uM measured under 365 nm UV irradiation by Fluo-8 based calcium imaging assay. The data set is classed as cell-based. The conditions noted are these: filed as agonist.

Molecules are shown by their SMILES. Activity calls are given as the source filed them. The calls are words filed in the database; no cut-off is given here.

T1 sequence (O75762 whole entry): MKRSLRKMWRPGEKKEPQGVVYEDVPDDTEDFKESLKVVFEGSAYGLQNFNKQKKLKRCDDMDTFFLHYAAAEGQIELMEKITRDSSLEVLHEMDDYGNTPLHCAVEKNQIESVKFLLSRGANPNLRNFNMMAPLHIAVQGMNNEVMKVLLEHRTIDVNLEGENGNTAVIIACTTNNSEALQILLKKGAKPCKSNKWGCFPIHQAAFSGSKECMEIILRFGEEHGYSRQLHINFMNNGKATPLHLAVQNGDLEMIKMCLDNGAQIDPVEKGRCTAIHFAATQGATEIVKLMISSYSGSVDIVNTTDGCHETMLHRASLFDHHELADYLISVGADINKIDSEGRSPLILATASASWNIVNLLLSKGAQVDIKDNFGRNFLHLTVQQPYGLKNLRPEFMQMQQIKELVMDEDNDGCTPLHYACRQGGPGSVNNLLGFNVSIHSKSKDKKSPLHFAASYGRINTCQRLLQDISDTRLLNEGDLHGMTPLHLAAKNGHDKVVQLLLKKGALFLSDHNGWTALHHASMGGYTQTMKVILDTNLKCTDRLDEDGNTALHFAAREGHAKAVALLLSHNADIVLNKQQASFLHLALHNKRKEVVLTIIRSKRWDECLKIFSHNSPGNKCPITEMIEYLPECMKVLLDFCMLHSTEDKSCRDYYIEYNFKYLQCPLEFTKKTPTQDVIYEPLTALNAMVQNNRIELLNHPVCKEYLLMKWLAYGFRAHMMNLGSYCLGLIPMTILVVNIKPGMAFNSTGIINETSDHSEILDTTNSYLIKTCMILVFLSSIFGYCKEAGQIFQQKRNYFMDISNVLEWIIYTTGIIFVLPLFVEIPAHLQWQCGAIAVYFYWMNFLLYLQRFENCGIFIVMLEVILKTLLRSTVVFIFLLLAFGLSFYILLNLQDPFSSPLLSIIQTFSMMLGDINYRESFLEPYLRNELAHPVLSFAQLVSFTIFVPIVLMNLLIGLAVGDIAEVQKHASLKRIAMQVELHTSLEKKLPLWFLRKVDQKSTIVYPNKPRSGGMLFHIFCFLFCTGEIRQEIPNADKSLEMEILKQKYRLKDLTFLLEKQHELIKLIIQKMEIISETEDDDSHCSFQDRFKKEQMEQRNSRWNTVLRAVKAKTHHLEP
Sodium channel protein type 4 subunit alpha (Homo sapiens), sequence (P35499 whole entry, looked up): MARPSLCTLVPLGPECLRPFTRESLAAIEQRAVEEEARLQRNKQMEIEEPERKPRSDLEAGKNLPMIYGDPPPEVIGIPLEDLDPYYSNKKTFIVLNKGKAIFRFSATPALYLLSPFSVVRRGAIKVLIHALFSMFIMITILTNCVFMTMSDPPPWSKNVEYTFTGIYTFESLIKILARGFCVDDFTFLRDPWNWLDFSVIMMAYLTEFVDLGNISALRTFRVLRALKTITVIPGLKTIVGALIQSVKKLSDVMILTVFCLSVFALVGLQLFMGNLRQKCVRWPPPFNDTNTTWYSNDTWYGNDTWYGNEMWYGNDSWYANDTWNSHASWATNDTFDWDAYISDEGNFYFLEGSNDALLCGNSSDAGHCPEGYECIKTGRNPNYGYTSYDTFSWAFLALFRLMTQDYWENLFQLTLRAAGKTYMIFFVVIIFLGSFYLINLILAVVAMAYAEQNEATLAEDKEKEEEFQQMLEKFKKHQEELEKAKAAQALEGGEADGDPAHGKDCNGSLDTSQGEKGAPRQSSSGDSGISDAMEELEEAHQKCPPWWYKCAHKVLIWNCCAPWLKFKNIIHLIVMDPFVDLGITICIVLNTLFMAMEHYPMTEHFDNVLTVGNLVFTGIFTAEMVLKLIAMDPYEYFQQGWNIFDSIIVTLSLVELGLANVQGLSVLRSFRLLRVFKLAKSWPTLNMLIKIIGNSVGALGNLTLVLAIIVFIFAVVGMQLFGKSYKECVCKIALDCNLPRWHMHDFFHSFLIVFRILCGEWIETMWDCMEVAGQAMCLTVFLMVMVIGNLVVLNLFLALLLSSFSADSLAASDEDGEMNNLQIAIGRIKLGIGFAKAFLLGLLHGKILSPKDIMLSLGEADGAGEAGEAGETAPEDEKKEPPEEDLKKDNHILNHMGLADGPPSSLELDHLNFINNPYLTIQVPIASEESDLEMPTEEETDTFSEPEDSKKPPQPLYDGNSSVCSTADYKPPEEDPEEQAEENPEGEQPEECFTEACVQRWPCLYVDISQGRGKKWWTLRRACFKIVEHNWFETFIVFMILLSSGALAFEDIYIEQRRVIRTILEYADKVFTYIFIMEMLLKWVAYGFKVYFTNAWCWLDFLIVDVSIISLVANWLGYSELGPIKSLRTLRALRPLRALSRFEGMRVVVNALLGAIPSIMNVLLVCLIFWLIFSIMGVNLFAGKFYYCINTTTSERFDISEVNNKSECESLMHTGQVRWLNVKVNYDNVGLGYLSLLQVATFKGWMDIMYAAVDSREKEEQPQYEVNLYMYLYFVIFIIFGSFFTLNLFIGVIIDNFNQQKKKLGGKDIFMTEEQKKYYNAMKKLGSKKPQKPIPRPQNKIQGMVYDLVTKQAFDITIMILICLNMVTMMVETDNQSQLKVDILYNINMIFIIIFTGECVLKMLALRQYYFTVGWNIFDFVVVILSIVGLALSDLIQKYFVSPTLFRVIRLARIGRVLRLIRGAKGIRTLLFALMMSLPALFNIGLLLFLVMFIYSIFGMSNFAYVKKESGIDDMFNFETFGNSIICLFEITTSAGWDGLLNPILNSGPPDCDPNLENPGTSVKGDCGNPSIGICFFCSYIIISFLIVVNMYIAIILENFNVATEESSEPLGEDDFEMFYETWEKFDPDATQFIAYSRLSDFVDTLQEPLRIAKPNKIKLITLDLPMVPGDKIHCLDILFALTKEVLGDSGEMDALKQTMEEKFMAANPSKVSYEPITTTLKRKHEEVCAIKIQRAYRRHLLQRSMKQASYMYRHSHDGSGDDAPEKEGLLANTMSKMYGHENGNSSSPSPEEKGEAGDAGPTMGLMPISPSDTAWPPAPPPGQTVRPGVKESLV
Sodium channel protein type 5 subunit alpha, sequence (Q14524 whole entry): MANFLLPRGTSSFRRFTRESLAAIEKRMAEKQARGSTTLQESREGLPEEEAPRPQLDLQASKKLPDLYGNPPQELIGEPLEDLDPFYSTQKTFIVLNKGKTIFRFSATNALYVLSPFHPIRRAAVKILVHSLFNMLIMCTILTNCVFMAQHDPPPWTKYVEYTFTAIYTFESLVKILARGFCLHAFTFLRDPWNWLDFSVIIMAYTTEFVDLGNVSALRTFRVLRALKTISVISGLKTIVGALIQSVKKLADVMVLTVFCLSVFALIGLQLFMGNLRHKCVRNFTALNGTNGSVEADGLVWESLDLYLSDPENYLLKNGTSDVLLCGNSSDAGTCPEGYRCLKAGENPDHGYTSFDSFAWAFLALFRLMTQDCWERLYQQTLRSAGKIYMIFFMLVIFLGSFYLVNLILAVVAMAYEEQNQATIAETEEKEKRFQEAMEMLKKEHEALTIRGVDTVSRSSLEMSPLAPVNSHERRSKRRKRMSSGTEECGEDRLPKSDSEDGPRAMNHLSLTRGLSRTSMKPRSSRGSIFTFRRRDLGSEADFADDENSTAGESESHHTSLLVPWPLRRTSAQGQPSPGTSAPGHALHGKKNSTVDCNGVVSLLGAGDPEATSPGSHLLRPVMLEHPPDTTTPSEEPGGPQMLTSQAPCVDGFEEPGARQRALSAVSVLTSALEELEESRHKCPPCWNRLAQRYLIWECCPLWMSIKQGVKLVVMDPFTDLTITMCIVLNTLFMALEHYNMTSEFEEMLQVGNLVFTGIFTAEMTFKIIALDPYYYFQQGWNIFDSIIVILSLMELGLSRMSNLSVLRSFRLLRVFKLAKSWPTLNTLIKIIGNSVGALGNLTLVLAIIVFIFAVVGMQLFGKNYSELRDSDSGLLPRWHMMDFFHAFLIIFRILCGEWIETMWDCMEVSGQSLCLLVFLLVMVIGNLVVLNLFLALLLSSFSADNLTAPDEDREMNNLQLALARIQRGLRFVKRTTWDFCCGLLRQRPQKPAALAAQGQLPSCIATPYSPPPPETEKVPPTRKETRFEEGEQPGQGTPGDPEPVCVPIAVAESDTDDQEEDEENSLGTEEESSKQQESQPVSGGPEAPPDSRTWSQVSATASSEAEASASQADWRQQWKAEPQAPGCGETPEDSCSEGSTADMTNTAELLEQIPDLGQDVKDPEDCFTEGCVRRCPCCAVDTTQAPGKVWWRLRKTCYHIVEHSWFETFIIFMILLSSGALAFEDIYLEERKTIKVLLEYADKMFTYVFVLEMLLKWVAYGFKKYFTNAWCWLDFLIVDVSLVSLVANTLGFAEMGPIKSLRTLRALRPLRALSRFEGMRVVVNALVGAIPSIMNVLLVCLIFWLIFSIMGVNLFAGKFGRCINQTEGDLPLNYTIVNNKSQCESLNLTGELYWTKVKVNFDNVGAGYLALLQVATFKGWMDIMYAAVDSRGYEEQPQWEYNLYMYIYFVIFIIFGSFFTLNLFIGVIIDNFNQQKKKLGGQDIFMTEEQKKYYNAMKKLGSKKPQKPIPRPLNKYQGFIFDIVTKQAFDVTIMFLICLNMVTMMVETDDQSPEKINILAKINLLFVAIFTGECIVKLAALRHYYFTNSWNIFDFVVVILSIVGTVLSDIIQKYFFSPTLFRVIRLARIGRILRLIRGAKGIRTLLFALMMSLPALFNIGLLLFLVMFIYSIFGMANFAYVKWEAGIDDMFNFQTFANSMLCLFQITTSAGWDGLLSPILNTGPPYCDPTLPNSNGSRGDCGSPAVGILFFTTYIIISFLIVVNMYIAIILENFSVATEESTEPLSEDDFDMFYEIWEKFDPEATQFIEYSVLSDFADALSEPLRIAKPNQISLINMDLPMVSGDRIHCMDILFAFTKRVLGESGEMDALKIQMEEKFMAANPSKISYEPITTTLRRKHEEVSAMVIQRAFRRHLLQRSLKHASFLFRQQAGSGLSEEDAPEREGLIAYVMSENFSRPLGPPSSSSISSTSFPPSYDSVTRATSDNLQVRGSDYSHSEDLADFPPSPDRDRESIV

One may read the half-life as how long it takes for the measured level to halve. What is called EC50 is the concentration at which the effect is half-maximal. Turning to `Oc1cccc(/N=N/c2ccccc2)c1`, the Drug metabolism entry in [1] and in data set [10] was “Metabolite_Detected” in each case. Besides, in [2], the inhibition result was “Active”. Besides, the outcome (in the data set listed under Mus musculus [3]; in [7]; in the data set on HEK293; in [9]) was inactive. For the same compound, the half-life at 50 µM in [4] is 1.65 min; in [11] it was 2.43 min. The Stability entry in [5] was “Stable”. Moreover, the outcome in data set [6] was Active. In addition, in data set [8], the EC50 came to 104 µM.
As to `O=C(O)c1ccc(/N=N/c2ccccc2)cc1`, the Drug metabolism result in data set [1] and in [10] was “Metabolite_Detected” each time. Besides, in [2], the inhibition result is “Active”. Also, the outcome (in data set [12]; in the data set listed under Mus musculus [3]; in data set [6]) was Active. In addition, the Activity entry in data set [13] is reported as “Not Active”. Further, the half-life at 50 µM is 1.35 min in data set [4] and 6.55 min in data set [11]. For the same compound, the outcome (in the data set filed under Mus musculus [14]; in the data set filed under Mus musculus [15]; in data set [7]; in data set [16]; in data set [17]; in the data set on HEK293) was inactive. Besides, the result in [18] was inactive. In data set [5], the Stability result is “Stable”. In addition, the 50% effective concentration (EC50) in data set [8] stood at 24.8 µM.
As for `Oc1ccc(/N=N/c2ccccc2)cc1`, in data set [2], the inhibition result was “Active”.
Regarding `Cc1cnccc1/N=N/c1ccccc1`, the inhibition entry in [2] is “Active”. Also, the outcome (in the data set listed under Mus musculus [3]; in data set [7]; with HEK293) was inactive. For the same compound, in data set [4], the half-life at 50 µM was 1.67 min. For the same compound, the Stability result in data set [5] was “Stable”. In addition, the outcome in [6] was Active. Besides, the EC50 in data set [8] is 19.2 µM. The Drug metabolism entry in [10] is “Metabolite_Notdetected”.
Turning to `Nc1cccc(/N=N/c2ccccc2)c1`, in data set [2], the inhibition result is “Active”. In addition, the Stability result in data set [5] is reported as “Stable”. In addition, in data set [6], the result was Active. Moreover, the outcome (in data set [7]; in the data set with HEK293) was inactive. In data set [10], the Drug metabolism entry is “Metabolite_Notdetected”.
For `c1ccc(/N=N/c2ccncc2)cc1`, in data set [2], the inhibition entry is “Active”.
Consider `C[C@H](CCC(=O)O)C[C@H](C)C[C@H](C)C(=O)/C=C(\O)[C@H](C)C[C@H](C)C/C=C/[C@@H](C)[C@@H](O)[C@@H](C)[C@@H](O)C[C@@H]1CC[C@@](C)([C@H]2CC[C@@](C)([C@@H](C)O)O2)O1`, for which the outcome in data set [6] was Active.
In the case of `C=CCN=C=S`, the outcome in data set [19] was Active.
In the case of `Clc1cc(/N=N/c2ccccc2)ccn1`, the Drug metabolism entry in [1] and in data set [10] was “Metabolite_Detected” in each case. Moreover, the inhibition result in [2] was “Active”. The outcome (in data set [12]; in the data set filed under Mus musculus [3]; in [6]) was Active. The Activity entry in data set [13] is “Not Active”. Besides, the half-life at 50 µM is 5.3 min in data set [4] and 9.67 min in [11]. Besides, the result (in the data set listed under Mus musculus [14]; in the data set filed under Mus musculus [15]; in data set [7]; in data set [16]; in data set [17]; with HEK293) was inactive. The result in data set [18] was inactive. Further, the Stability entry in [5] is “Stable”. Besides, the EC50 in data set [8] turned out to be 5.55 µM.
